Measured values: patent publication US8445677B2, “Substituted pyrimidyl guanidine derivatives having anticancer activity” (University of Southern California, priority 2008, dated 2013)

These compounds were tested on HCT116 p53+/+ (assay: MTT cytotoxicity assay (Example 2)). Conditions: Homo sapiens, HCT-116, 72 h, MTT, 72 h; read-out: IC50 Hct116 p53+/+.
Format: cell-based
Source text: (§1) Human breast cancer cell lines MDA-MB-435 and SkBr-3 were purchased from the American Type Culture Collection (Manassas, Va.). The HCT116 P53+/+ and HCT116 P53−/− cell lines were kindly provided by Dr. Bert Vogelstein (Johns Hopkins Medical Institutions, Baltimore, Md.). The HEY human ovarian carcinoma cell line was kindly provided by Dr. Louis Dubeau (University of Southern California Norris Cancer Center). Cells were maintained as monolayer cultures in media supplemented with 10% fetal bovine serum (Gemini-Bioproducts, Woodland, Calif.) and 2 mmo/lL-glutamine at 37° C. in a humidified atmosphere of 5% C02. To remove the adherent cells from the flask for passaging and counting, cells were washed with PBS without calcium or magnesium, incubated with a small volume of 0.25% trypsin-EDTA solution (Sigma-Aldrich, St. Louis, Mo.) for 5-10 min, and washed with culture medium and centrifuged. All experiments were performed using cells in exponential growth stage. Cells were routinely checked for mycoplasma contamination using a PCR-based assay (Stratagene, Cambridge, UK).
(§2) Stock solutions (10 mM) of all compounds were prepared in DMSO and stored at −20° C. Further dilutions were made fresh in cell-culture media just prior to cell treatment.
(§3) Cytotoxicity was assessed by a 3-(4,5-dimethylthiazol-2-yl)-2,5-diphenyltetrazolium bromide (MTT) assay as previously described.^23 Cells were seeded in 96-well plates and allowed to attach overnight. Cells were subsequently treated with continuous exposure to the corresponding drug for 72 h. An MTT solution (at a final concentration of 0.5 mg/ml) was added to each well, and cells were incubated for 4 h at 37° C. After removal of the medium, DMSO was added and the absorbance was read at 570 nm. All assays were performed in triplicate. The IC50 was determined for each drug from a plot of log (drug concentration) versus percentage of cells killed.
Work on `Cc1[nH]c(Nc2nc3ccccc3s2)nc(=O)c1Cc1ccccc1` [7-SMD18-8] yielded an IC50 of 10 µM.
`CC(C)c1cc(=O)[nH]c(Nc2nc3ccccc3s2)n1` [8-SMD18-14] was tested, and the IC50 was 4.5 ± 1.5 µM.
Compound `CC(C)(C)c1cc(=O)[nH]c(Nc2nc3ccccc3s2)n1` [9-SMD18-15-BAS 125346 60] has an IC50 of 9.9 µM.
`Oc1ccc(Cc2ccc(O)c3ncccc23)c2cccnc12` [11-SMD58-1] was tested, and the IC50 was 0.45 µM.
In the case of `CCOC(=O)C1CCCN(Cc2ccc(O)c3ncccc23)C1` (centres unmarked) [12-SMD58], the IC50 is reported as 1.6 ± 0.4 µM.
In the case of `CCOC(=O)N1CCN(Cc2ccc(O)c3ncccc23)CC1` [13-SMD58-5], the IC50 is reported as 2.1 ± 0.2 µM.
`CN1CCN(Cc2ccc(O)c3ncccc23)CC1` [14-SMD58-7] was tested, and the IC50 was 0.7 ± 0.4 µM.

Same assay, conditions: Homo sapiens, HCT-116, p53+/+ cell line; read-out: IC50
With `Oc1ccc(Cc2ccc(O)c3ncccc23)c2cccnc12` [11-SMD58-1] the IC50 was < 1 µM.

Same assay, conditions: MTT, 72 h; read-out: IC50 Hct116 p53+/+
In the case of `Cc1[nH]c(Nc2nc3ccccc3s2)nc(=O)c1Cc1ccccc1` [7-SMD18-8], the IC50 is reported as > 10 µM.

What follows are compounds tested on MDA-MB-435 (assay: MTT cytotoxicity assay (Example 2)). Conditions: Homo sapiens, MDA-MB-435, 72 h.
Format: cell-based
Source text: as §1, §2, §3
For `Cc1[nH]c(Nc2nc3ccccc3s2)nc(=O)c1Cc1ccccc1` [7-SMD18-8], the IC50 was > 10 µM.
In the case of `CC(C)c1cc(=O)[nH]c(Nc2nc3ccccc3s2)n1` [8-SMD18-14], the IC50 is reported as > 10 µM.
Compound `CC(C)(C)c1cc(=O)[nH]c(Nc2nc3ccccc3s2)n1` [9-SMD18-15-BAS 125346 60] has an IC50 of 7.5 µM.
With `Oc1ccc(Cc2ccc(O)c3ncccc23)c2cccnc12` [11-SMD58-1] the IC50 was 2.8 ± 1.7 µM.
With `CCOC(=O)C1CCCN(Cc2ccc(O)c3ncccc23)C1` (centres unmarked) [12-SMD58] the IC50 was 4.2 ± 1.2 µM.
For `CCOC(=O)N1CCN(Cc2ccc(O)c3ncccc23)CC1` [13-SMD58-5], the IC50 was 5.3 ± 0.1 µM.
For `CN1CCN(Cc2ccc(O)c3ncccc23)CC1` [14-SMD58-7], the IC50 was 3.9 ± 0.1 µM.

The compounds below were run on HCT116 p53−/− (assay: MTT cytotoxicity assay (Example 2)). Conditions: 72 h.
Format: cell-based
Source text: as §1, §2, §3
For `Cc1[nH]c(Nc2nc3ccccc3s2)nc(=O)c1Cc1ccccc1` [7-SMD18-8], the IC50 was 7.2 µM.

Same assay, conditions: Homo sapiens, HCT-116, 72 h
In the case of `Cc1[nH]c(Nc2nc3ccccc3s2)nc(=O)c1Cc1ccccc1` [7-SMD18-8], the IC50 is reported as > 10 µM.
Compound `CC(C)c1cc(=O)[nH]c(Nc2nc3ccccc3s2)n1` [8-SMD18-14] has an IC50 of 3.6 ± 1.8 µM.
`CC(C)(C)c1cc(=O)[nH]c(Nc2nc3ccccc3s2)n1` [9-SMD18-15-BAS 125346 60] was tested, and the IC50 was 9.9 µM.
`Oc1ccc(Cc2ccc(O)c3ncccc23)c2cccnc12` [11-SMD58-1] gave an IC50 of 0.25 ± 0.5 µM.
With `CCOC(=O)C1CCCN(Cc2ccc(O)c3ncccc23)C1` (centres unmarked) [12-SMD58] the IC50 was 2 ± 0.1 µM.
`CCOC(=O)N1CCN(Cc2ccc(O)c3ncccc23)CC1` [13-SMD58-5] showed an IC50 of 1 ± 0.1 µM.
`CN1CCN(Cc2ccc(O)c3ncccc23)CC1` [14-SMD58-7] gave an IC50 of 1.7 ± 0.2 µM.

These compounds were tested on HEY (assay: MTT cytotoxicity assay (Example 2)). Conditions: Homo sapiens, 72 h.
Format: cell-based, human
Source text: as §1, §2, §3
`Oc1ccc(Cc2ccc(O)c3ncccc23)c2cccnc12` [11-SMD58-1] was tested, and the IC50 was 0.1 µM.
Compound `CCOC(=O)C1CCCN(Cc2ccc(O)c3ncccc23)C1` (centres unmarked) [12-SMD58] has an IC50 of 0.9 µM.
With `CCOC(=O)N1CCN(Cc2ccc(O)c3ncccc23)CC1` [13-SMD58-5] the IC50 was 1.9 µM.
With `CN1CCN(Cc2ccc(O)c3ncccc23)CC1` [14-SMD58-7] the IC50 was 0.4 µM.

What follows are compounds tested on SkBr-3 (assay: MTT cytotoxicity assay (Example 2)). Conditions: Homo sapiens, SK-BR-3, 72 h.
Format: cell-based, human
Source text: as §1, §2, §3
With `Cc1[nH]c(Nc2nc3ccccc3s2)nc(=O)c1Cc1ccccc1` [7-SMD18-8] the IC50 was > 10 µM.
With `CC(C)c1cc(=O)[nH]c(Nc2nc3ccccc3s2)n1` [8-SMD18-14] the IC50 was > 10 µM.
`CC(C)(C)c1cc(=O)[nH]c(Nc2nc3ccccc3s2)n1` [9-SMD18-15-BAS 125346 60] was tested, and the IC50 was > 10 µM.
For `Oc1ccc(Cc2ccc(O)c3ncccc23)c2cccnc12` [11-SMD58-1], the IC50 was 1.4 ± 0.8 µM.
In the case of `CCOC(=O)C1CCCN(Cc2ccc(O)c3ncccc23)C1` (centres unmarked) [12-SMD58], the IC50 is reported as 2.2 ± 0.9 µM.
For `CCOC(=O)N1CCN(Cc2ccc(O)c3ncccc23)CC1` [13-SMD58-5], the IC50 was 3.7 ± 0.5 µM.
`CN1CCN(Cc2ccc(O)c3ncccc23)CC1` [14-SMD58-7] showed an IC50 of 3.2 ± 0.1 µM.
